From patent US7101863B2, “Pharmaceutical compositions with wound healing or anti-complementary activity comprising a dextran derivative” (Biodex, priority 2000, dated 2006)

Columns and labels:
gastric mucosa = assay: In-vivo gastric healing, macroscopic impairment of the gastric mucosa; parameters: species or system Sprague-Dawley rats; key: 0: Normal mucosa.; +: Small superficial hemorrhagic striae.; ++: Short and broad superficial hemorrhagic striae.; +++: Long and broad superficial hemorrhagic striae.; ++++: Perforations; details: oral, dextran derivative and dextran T40 50 μg/kg, prostaglandin E2 10 μg/kg
Method: The animals employed are 12-week-old male Sprague-Dawley rats weighing from 200 to 250 g. Three batches of animals are used, with each consisting of 4 animals:
the first batch is treated with a dextran derivative of the general formula DMCaBbSuc in which a=0.75, b=0.25 and c=0.15, at the rate of 50 μg/kg,
the second batch serves as the control, with the animals being treated with a native dextran T40 (Pharmacia Fine Chemical; weight average molecular mass Mw: 37 500 g/mol; Mw/Mn: 1.7, with Mn representing the number average mass), at the rate of 50 μg/kg,
This batch therefore corresponds to a positive control.
The dextran derivative, the native dextran and the prostaglandin E2 are dissolved in physiological saline and administered orally to the animals.
The animals are sacrificed at different stages of healing, namely on D2, D4, D7 and D14, with the healing process being considered on days from the date on which the gastric irritation is induced. The gastric mucosa is recovered with a view to carrying out two studies:
quantification of the impairment of the gastric mucosa,
Table V represents a compilation of the results of the macroscopic study of the inflammatory reaction in the gastric mucosa, with the study being effected in accordance with the following scale: […]

right eye = assay: In-vivo ocular healing after sodium hydroxide burn, histological studies; parameters: species or system New Zealand white rabbits; details: 100 μl three times daily; FGF-2 0.1 ng and/or dextran derivative 50 μg/ml
Method: 20 New Zealand white rabbits (10 males and 10 females) are used, with the rabbits being 1 year old and weighing from 2.5 to 3 kg; a 5.5 mm filter soaked in a 1N solution of sodium hydroxide was placed for 60 seconds on the right eye of these rabbits, which were then divided up into 4 groups of 5 animals each:
the first group is treated three times daily with 100 μl of a solution containing 0.1 ng of FGF-2 (Fibroblast Growth Factor-2);
the second group is treated three times daily with 100 μl of an isotonic solution containing 50 μg of a dextran derivative/ml of the general formula DMCaBbSuc in which a=0.75, b=0.31 and c=0.34;
the third group is treated three times daily with 100 μl of a solution containing 0.1 ng of FGF-2 and 50 μg of the above-mentioned dextran derivative/ml;
the fourth group (control group) is treated three times daily with 100 μl of a PBS buffer solution.
The speed of ocular healing in the four groups of animals is compared by means of histological studies carried out on days D1, D2, D4, D6 and D8.

complement system = assay: In-vivo anticomplementary action, hemolytic CH50 assay on rat serum; parameters: species or system Sprague-Dawley rats; details: injection with Sephadex G25 20 μg and 50 μg of test substance
Text: The anticomplementary action is studied by means of a hemolytic or CH50 assay, in accordance with a protocol in which the serum of the rats, withdrawn at different time intervals, is activated by sheep erythrocytes which are sensitized by rabbit antibodies directed against sheep red blood cells (EA). By definition, one CH50 unit corresponds to the concentration of complement proteins (contained in one milliliter of serum) which is capable of inducing the hemolysis of 50% of 2×10^7 activated EAs in a reaction medium where the volume, the temperature and the reaction time are kept constant. The number of hemolytic sites per cell is calculated.

CCCCC[C@H](O)/C=C/[C@H]1[C@H](O)CC(=O)[C@@H]1C/C=C\CCCC(=O)O [Prostaglandin E2, prostaglandin E2]
Impairment of the gastric mucosa (gastric mucosa; D2): ++ | Impairment of the gastric mucosa (gastric mucosa; D4): + | Impairment of the gastric mucosa (gastric mucosa; D7): + | Impairment of the gastric mucosa (gastric mucosa; D14): 0

FGF-2: Fibroblast Growth Factor-2
Duration of ocular healing (mean for each group of animals) (right eye): 5 days

native dextran
Inhibition of the activation of the complement (CH50) (complement system): did not have any effect
